Measured values: ChEMBL document CHEMBL1201862, “PubChem BioAssay data set” (2004)
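Exposure lasted 48 hours, with cells grown in 96-well plates and compounds tested at five concentrations. GI50 = concentration required for 50% inhibition of growth.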 Active and inactive are the calls of the source. Cut-off read from the data, not from the text of the source: active = GI50 up to about 1.1 µM and inactive = higher.

Assays:
Assay in all cases: inhibition of tumour cell growth, NCI panel, 48 h
SN12C = system: SN12C
K562 = system: K562
M14 = system: M14
786-0 = system: 786-0
HL-60 = system: HL-60
ACHN = system: ACHN
COLO 205 = system: COLO 205
OVCAR-8 = system: OVCAR-8
HOP-92 = system: HOP-92
OVCAR-4 = system: OVCAR-4
HT-29 = system: HT-29
HCT-15 = system: HCT-15
SF-268 = system: SF-268
NCI-H460 = system: NCI-H460
LOX IMVI = system: LOX IMVI
SW-620 = system: SW-620
NCI-H226 = system: NCI-H226
UACC-257 = system: UACC-257

Row | Compound | GI50 (SN12C) | GI50 (K562) | GI50 (M14) | GI50 (786-0) | GI50 (HL-60) | GI50 (ACHN) | GI50 (COLO 205) | GI50 (OVCAR-8) | GI50 (HOP-92) | GI50 (OVCAR-4) | GI50 (HT-29) | GI50 (HCT-15) [µM] | GI50 (SF-268) | GI50 (NCI-H460) | GI50 (LOX IMVI) | GI50 (SW-620) | GI50 (NCI-H226) | GI50 (UACC-257)
1 | S=C(Nc1ccccc1)Nc1ccccc1SC(/C=C/NNC1=NN=C(c2ccccc2)C(c2ccccc2)N1)c1ccccc1 (configuration not stated) | > 100 µM (inactive) | 64.9 µM (inactive) | > 100 µM (inactive) | 81.5 µM (inactive) | 10.4 µM (inactive) | 69.7 µM (inactive) | > 100 µM (inactive) | > 100 µM (inactive) | 3.97 µM (inactive) | 5.68 µM (inactive) | > 100 µM (inactive) | > 100 | > 100 µM (inactive) | > 100 µM (inactive) | > 100 µM (inactive) | > 100 µM (inactive) | – | –
2 | CCc1cc(C)cc2[n+]1CC=C2C.[O-][Cl+3]([O-])([O-])[O-] | > 100 µM (inactive) | – | > 100 µM (inactive) | > 100 µM (inactive) | 18.2 µM (inactive) | > 100 µM (inactive) | > 100 µM (inactive) | > 100 µM (inactive) | 8.63 µM (inactive) | > 100 µM (inactive) | > 100 µM (inactive) | – | > 100 µM (inactive) | > 100 µM (inactive) | > 100 µM (inactive) | > 100 µM (inactive) | > 100 µM (inactive) | 27.3 µM (inactive)
3 | O=C(CO)C1CC2C=CC1C2 (configuration not stated) | > 100 µM (inactive) | > 100 µM (inactive) | > 100 µM (inactive) | > 100 µM (inactive) | > 100 µM (inactive) | > 100 µM (inactive) | > 100 µM (inactive) | > 100 µM (inactive) | > 100 µM (inactive) | > 100 µM (inactive) | > 100 µM (inactive) | > 100 | > 100 µM (inactive) | > 100 µM (inactive) | > 100 µM (inactive) | > 100 µM (inactive) | – | > 100 µM (inactive)
4 | Cc1c(C(=O)/C=C/c2ccccc2O)c(=O)n(-c2ccccc2)n1C | 21 µM (inactive) | – | – | 20.4 µM (inactive) | – | 19 µM (inactive) | 26.4 µM (inactive) | 15.6 µM (inactive) | 28.3 µM (inactive) | – | 35.5 µM (inactive) | 24.2 | 37.8 µM (inactive) | 12.9 µM (inactive) | 16.9 µM (inactive) | 15.1 µM (inactive) | 33.5 µM (inactive) | 22.4 µM (inactive)
5 | Cc1nc(C(=O)O)c2ccccc2n1 | > 100 µM (inactive) | > 100 µM (inactive) | – | > 100 µM (inactive) | > 100 µM (inactive) | > 100 µM (inactive) | > 100 µM (inactive) | > 100 µM (inactive) | > 100 µM (inactive) | – | > 100 µM (inactive) | – | > 100 µM (inactive) | > 100 µM (inactive) | – | > 100 µM (inactive) | – | > 100 µM (inactive)
6 | COc1c(O)c2c3c(cc(C)cc3c1C(C)C)OC2 | > 100 µM (inactive) | > 100 µM (inactive) | > 100 µM (inactive) | > 100 µM (inactive) | > 100 µM (inactive) | > 100 µM (inactive) | > 100 µM (inactive) | > 100 µM (inactive) | > 100 µM (inactive) | > 100 µM (inactive) | > 100 µM (inactive) | > 100 | > 100 µM (inactive) | > 100 µM (inactive) | > 100 µM (inactive) | > 100 µM (inactive) | > 100 µM (inactive) | > 100 µM (inactive)
7 | O=C1[C@H](Cl)[C@H]2c3cc4ccccc4nc3Oc3ccccc3N12 | 43.4 µM (inactive) | > 10 µM (inactive) | 76.9 µM (inactive) | 36.8 µM (inactive) | 25.5 µM (inactive) | 28.4 µM (inactive) | 54.8 µM (inactive) | 51.3 µM (inactive) | – | 45.5 µM (inactive) | 69.8 µM (inactive) | 43 | 25.8 µM (inactive) | 53.7 µM (inactive) | 36.7 µM (inactive) | > 100 µM (inactive) | 75.9 µM (inactive) | 50.4 µM (inactive)
8 | O=C(O)c1c(-c2cccc3ccccc23)sc(-c2cccc3ccccc23)c1C(=O)O | > 100 µM (inactive) | 90.8 µM (inactive) | > 100 µM (inactive) | > 100 µM (inactive) | > 100 µM (inactive) | > 100 µM (inactive) | > 100 µM (inactive) | > 100 µM (inactive) | > 100 µM (inactive) | – | > 100 µM (inactive) | > 100 | > 100 µM (inactive) | > 100 µM (inactive) | > 100 µM (inactive) | > 100 µM (inactive) | > 100 µM (inactive) | > 100 µM (inactive)
9 | O=C(CSc1nnc[nH]1)C[P+](c1ccccc1)(c1ccccc1)c1ccccc1 | > 100 µM (inactive) | 43.4 µM (inactive) | > 100 µM (inactive) | > 100 µM (inactive) | 31.7 µM (inactive) | > 100 µM (inactive) | > 100 µM (inactive) | > 100 µM (inactive) | 22.9 µM (inactive) | 94 µM (inactive) | – | > 100 | > 100 µM (inactive) | 94.4 µM (inactive) | > 100 µM (inactive) | > 100 µM (inactive) | – | > 100 µM (inactive)
10 | COC(=O)[C@@]12C(=O)C=CC(=O)C1C1C(=CC2C)OC2OC3(CCCCC3)OC21 (some centres not stated) | 17.7 µM (inactive) | 6.9 µM (inactive) | 17.8 µM (inactive) | 17.5 µM (inactive) | 3.85 µM (inactive) | 16.9 µM (inactive) | 14.2 µM (inactive) | 16.4 µM (inactive) | – | 16.7 µM (inactive) | 21.6 µM (inactive) | 13.2 | 20.9 µM (inactive) | 18.8 µM (inactive) | 20.5 µM (inactive) | 19.3 µM (inactive) | 18.8 µM (inactive) | 17.1 µM (inactive)
11 | CC1=C(O)C(=O)C2C(=O)C1C1Cc3ccccc3C21 (configuration not stated) | – | > 100 µM (inactive) | > 100 µM (inactive) | > 100 µM (inactive) | > 100 µM (inactive) | > 100 µM (inactive) | > 100 µM (inactive) | > 100 µM (inactive) | > 100 µM (inactive) | > 100 µM (inactive) | > 100 µM (inactive) | > 100 | > 100 µM (inactive) | – | > 100 µM (inactive) | > 100 µM (inactive) | > 100 µM (inactive) | –
12 | O=[N+]([O-])[C@@H]1C2C=CC(C2)[C@H]1Cl (some centres not stated) | > 100 µM (inactive) | > 100 µM (inactive) | > 100 µM (inactive) | > 100 µM (inactive) | > 100 µM (inactive) | > 100 µM (inactive) | > 100 µM (inactive) | > 100 µM (inactive) | > 100 µM (inactive) | > 100 µM (inactive) | > 100 µM (inactive) | > 100 | > 100 µM (inactive) | > 100 µM (inactive) | > 100 µM (inactive) | > 100 µM (inactive) | – | > 100 µM (inactive)
13 | CCOC1=C2C(=O)OC(=O)C2C2CCCCC2=C1 (configuration not stated) | > 100 µM (inactive) | > 100 µM (inactive) | > 100 µM (inactive) | > 100 µM (inactive) | > 100 µM (inactive) | – | > 100 µM (inactive) | > 100 µM (inactive) | > 100 µM (inactive) | > 100 µM (inactive) | > 100 µM (inactive) | > 100 | > 100 µM (inactive) | > 100 µM (inactive) | > 100 µM (inactive) | > 100 µM (inactive) | – | > 100 µM (inactive)
14 | COc1cc(C2c3cc(O)c(OC)cc3C3OCC2C3CO)ccc1O (configuration not stated) | – | > 100 µM (inactive) | > 100 µM (inactive) | > 100 µM (inactive) | > 100 µM (inactive) | > 100 µM (inactive) | > 100 µM (inactive) | – | 7.6 µM (inactive) | > 100 µM (inactive) | > 100 µM (inactive) | > 100 | > 100 µM (inactive) | > 100 µM (inactive) | > 100 µM (inactive) | > 100 µM (inactive) | > 100 µM (inactive) | –
15 | CC1=CC(=O)c2c(C=O)c(O)c(O)c(C(C)C)c2C1=O | 35.1 µM (inactive) | 26.1 µM (inactive) | 31.3 µM (inactive) | 19.8 µM (inactive) | 25.6 µM (inactive) | 16.8 µM (inactive) | 25.1 µM (inactive) | – | 20.9 µM (inactive) | 14.6 µM (inactive) | – | 26.2 | 20.9 µM (inactive) | 28.8 µM (inactive) | 14.9 µM (inactive) | – | 10.6 µM (inactive) | –
16 | Cc1c(O)c(OC2OC(CO)C(O)C(O)C2O)cc2c1CC[C@@H]1C2(C)C(=O)C[C@]2(C)[C@@H]([C@@](C)(O)C3CCC(C)(C)O3)[C@H](O)C[C@@]12C (some centres not stated) | > 100 µM (inactive) | > 100 µM (inactive) | > 100 µM (inactive) | > 100 µM (inactive) | – | > 100 µM (inactive) | > 100 µM (inactive) | > 100 µM (inactive) | > 100 µM (inactive) | > 100 µM (inactive) | > 100 µM (inactive) | > 100 | > 100 µM (inactive) | > 100 µM (inactive) | > 100 µM (inactive) | > 100 µM (inactive) | > 100 µM (inactive) | > 100 µM (inactive)
17 | Cc1cccc(C)c1NC(=O)CCCC(=O)C(C#N)c1ccccc1 (configuration not stated) | > 10 µM (inactive) | > 100 µM (inactive) | > 100 µM (inactive) | > 10 µM (inactive) | > 100 µM (inactive) | > 100 µM (inactive) | > 100 µM (inactive) | > 10 µM (inactive) | > 100 µM (inactive) | > 100 µM (inactive) | > 10 µM (inactive) | > 10 | > 10 µM (inactive) | > 10 µM (inactive) | – | > 100 µM (inactive) | > 100 µM (inactive) | > 100 µM (inactive)
